Like-named read-outs stand apart in the source and are kept apart here. Each block holds one compound with its values, some of them ahead of it.
How the values were obtained:
PP2A/B (PPP2CA;PPP2CB) = test: LiP-Quant, HeLa lysate; type: binding, human
PP1 = test: LiP-Quant, HeLa lysate; type: binding, human; settings: 16 peptides, read-out: median EC50 across LiP-Quant peptides
Source text: Next, we focused on kinases and phosphatases as drug targets of particular pharmacological interest, given their frequent dysregulation in disease, particularly in cancer. One common issue with these classes of targets is their variable selectivity, as some of these drugs have more than one protein target in the cell, and frequently bind them with different affinities, thus it is important to characterize these subtle differences to determine the specific modes of actions.

PPP1CA = PPP1CA (Homo sapiens, UniProt P62136); test: LiP-Quant, HeLa lysate; type: binding; settings: peptide […]
PPP1CA, sequence (P62136 whole entry): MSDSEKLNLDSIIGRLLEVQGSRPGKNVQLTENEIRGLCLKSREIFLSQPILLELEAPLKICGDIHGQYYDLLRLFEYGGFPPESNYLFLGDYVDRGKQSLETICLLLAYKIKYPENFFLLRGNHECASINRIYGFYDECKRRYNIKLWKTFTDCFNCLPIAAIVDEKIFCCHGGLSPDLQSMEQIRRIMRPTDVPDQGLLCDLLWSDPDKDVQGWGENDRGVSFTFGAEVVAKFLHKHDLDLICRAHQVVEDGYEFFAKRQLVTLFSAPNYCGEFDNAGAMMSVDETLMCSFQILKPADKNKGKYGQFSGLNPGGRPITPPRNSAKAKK

PPP3CA = PPP3CA (Homo sapiens, UniProt Q08209); test: LiP-Quant, HeLa lysate; type: binding; settings: peptide SDDELGSEEDGFDGATAAAR
PPP3CA, sequence (P63098 2-170, other chains not shown): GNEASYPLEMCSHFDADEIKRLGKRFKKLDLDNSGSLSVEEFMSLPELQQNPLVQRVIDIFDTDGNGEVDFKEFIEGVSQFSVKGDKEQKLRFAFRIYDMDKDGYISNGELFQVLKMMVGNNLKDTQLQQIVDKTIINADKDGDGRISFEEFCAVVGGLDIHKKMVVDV

PP2A and PP1 = settings: cited from earlier work
FKBP1A = FKBP1A (Homo sapiens, UniProt P62942)
FKBP1A, sequence (P62942 whole entry): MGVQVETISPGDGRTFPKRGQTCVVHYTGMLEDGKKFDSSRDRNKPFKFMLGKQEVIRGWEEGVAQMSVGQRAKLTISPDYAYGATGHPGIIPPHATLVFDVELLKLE

ARI1 = target: T1, ARI1 (Saccharomyces cerevisiae, UniProt P53111); test: LiP-Quant, S. cerevisiae lysates; type: binding; settings: wild type yeast lysate
T1 construct: Cell lysates from at least three independent biological replicates were aliquoted in equivalent volumes containing 100 µg of proteome sample; endogenous in cells; host or cells: S. cerevisiae (Euroscarf strains), cryo-milled lysate
Description: (§1) To discriminate between these two cases, the same LiP-Quant experiment was performed with lysates where TOR signaling was impaired via a mutation in the tor1 gene and a deletion of the fpr1 gene (tor1-1 Δfpr1)[20].
(§2) Saccharomyces cerevisiae: Cell lysates from at least three independent biological replicates were aliquoted in equivalent volumes containing 100 µg of proteome sample and incubated for 10 min at 25 °C with the drug of interest. […] Samples were then heated again at 98 °C for 3 min in a thermocycler. These samples were then subjected to complete digestion in denaturing conditions as described below.

SYEC = target: T2, SYEC (Saccharomyces cerevisiae, UniProt P46655); test: LiP-Quant, S. cerevisiae lysates; type: binding; settings: wild type yeast lysate
T2 construct: Cell lysates from at least three independent biological replicates were aliquoted in equivalent volumes containing 100 µg of proteome sample; endogenous in cells; host or cells: S. cerevisiae (Euroscarf strains), cryo-milled lysate
Description: as §1, §2

[1] = target: T3, FPR1 (FK506-binding protein 1, P20081) (Saccharomyces cerevisiae, UniProt P20081); test: LiP-Quant, S. cerevisiae lysates (wild type); settings: Yeast WT; for EC50: EC50 (nM)
T3 construct: Cell lysates from at least three independent biological replicates were aliquoted in equivalent volumes containing 100 µg of proteome sample; endogenous in cells; host or cells: S. cerevisiae wild type (Euroscarf), cryo-milled lysate
T3 sequence (P20081 1-114): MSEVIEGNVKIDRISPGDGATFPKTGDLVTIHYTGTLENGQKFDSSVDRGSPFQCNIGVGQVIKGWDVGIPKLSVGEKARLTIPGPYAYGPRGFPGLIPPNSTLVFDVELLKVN

MAPK2K1 (MAP2K1) = MAPK2K1 (MAP2K1) (Homo sapiens, UniProt Q02750); test: LiP-Quant, HeLa lysate; type: binding
MAPK2K1 (MAP2K1), sequence (Q02750 whole entry): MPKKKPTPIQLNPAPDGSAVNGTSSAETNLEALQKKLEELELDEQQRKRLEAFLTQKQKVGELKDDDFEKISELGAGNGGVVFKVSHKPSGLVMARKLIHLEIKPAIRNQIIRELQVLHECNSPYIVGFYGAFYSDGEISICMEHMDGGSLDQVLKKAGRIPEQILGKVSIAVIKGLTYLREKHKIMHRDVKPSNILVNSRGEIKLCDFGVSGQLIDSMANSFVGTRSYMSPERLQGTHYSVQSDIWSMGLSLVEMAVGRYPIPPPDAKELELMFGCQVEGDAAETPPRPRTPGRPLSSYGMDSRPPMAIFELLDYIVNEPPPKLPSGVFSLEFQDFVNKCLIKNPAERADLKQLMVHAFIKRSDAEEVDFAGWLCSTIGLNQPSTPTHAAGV

PLEC (Plectin) = PLEC (Plectin) (Homo sapiens, UniProt Q15149); test: LiP-Quant, HeLa lysate; type: binding; settings: peptide QRAEAER
NQO2 = target: T4, NQO2 (Homo sapiens, UniProt P16083); test: LiP-Quant, HeLa lysate; type: binding; settings: peptide EEPIPCTAHWHFGQ
T4 sequence (P16083 1-231): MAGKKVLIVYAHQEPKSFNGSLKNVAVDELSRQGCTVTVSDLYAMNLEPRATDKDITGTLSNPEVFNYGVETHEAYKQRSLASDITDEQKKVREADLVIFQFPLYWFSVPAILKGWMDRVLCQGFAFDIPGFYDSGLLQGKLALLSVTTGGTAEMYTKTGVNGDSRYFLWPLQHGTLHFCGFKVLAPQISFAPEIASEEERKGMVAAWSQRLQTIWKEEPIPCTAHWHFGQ

LIN7C = target: T5, LIN7C (Homo sapiens, UniProt Q9NUP9); test: LiP-Quant, HeLa lysate; type: binding; settings: peptide AASEGHSHPR
T5 sequence (Q9NUP9 1-197): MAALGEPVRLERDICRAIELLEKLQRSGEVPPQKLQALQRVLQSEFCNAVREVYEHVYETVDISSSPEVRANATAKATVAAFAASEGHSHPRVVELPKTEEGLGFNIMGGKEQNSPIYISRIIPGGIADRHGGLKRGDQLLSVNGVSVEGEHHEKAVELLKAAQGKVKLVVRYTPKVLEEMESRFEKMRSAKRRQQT

XPO1 (Exportin-1) = XPO1 (Exportin-1) (Homo sapiens, UniProt O14980); test: LiP-Quant, HeLa lysate; type: binding; settings: peptide NQCEGIKK
XPO1 (Exportin-1), sequence (O14980 whole entry): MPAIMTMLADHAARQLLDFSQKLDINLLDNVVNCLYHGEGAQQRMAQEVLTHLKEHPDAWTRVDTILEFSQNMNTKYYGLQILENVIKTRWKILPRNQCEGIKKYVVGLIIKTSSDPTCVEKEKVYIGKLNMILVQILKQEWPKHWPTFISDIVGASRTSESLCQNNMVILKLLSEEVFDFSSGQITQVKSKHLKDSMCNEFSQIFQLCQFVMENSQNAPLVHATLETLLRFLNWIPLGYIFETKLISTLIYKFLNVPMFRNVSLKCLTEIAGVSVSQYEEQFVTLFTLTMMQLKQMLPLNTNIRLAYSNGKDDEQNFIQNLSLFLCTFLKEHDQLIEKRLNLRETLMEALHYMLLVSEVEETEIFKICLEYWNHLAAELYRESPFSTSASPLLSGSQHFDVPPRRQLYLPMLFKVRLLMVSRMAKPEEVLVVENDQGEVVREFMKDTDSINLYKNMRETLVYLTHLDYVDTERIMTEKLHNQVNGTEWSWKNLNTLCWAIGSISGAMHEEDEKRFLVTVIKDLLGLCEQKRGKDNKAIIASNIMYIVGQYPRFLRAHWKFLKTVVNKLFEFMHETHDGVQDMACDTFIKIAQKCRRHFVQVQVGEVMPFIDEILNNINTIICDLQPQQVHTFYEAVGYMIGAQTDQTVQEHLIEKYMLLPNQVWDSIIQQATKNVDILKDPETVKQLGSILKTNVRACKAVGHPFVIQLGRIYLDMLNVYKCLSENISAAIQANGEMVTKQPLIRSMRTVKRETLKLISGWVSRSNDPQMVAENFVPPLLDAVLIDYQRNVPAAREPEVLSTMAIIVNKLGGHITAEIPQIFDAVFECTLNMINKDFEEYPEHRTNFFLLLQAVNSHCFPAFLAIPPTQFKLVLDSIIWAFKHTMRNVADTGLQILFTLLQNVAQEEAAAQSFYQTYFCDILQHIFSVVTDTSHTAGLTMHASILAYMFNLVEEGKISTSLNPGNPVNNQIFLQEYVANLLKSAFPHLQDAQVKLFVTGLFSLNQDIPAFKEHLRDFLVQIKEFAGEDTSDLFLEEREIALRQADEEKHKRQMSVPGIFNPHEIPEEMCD

MAPK2K1 = test system: MAPK2K1; set-up: method as in PMID 29191878; settings: read-out: EC50 measured with alternative methods; cited from earlier work
[2] = target: ATP1A1 (Sodium/potassium-transporting ATPase subunit alpha-1) (Homo sapiens, UniProt P05023); test: LiP-Quant, membrane enriched HeLa eluate
Description: (§3) HeLa cells were lysed as above (lysate) however 0.3% n-dodecyl-β-D-maltoside (DDM) was added prior to lysis. […] Beads were then centrifuged at 300g for 30 s to pellet and the supernatant was aspirated. Beads were then washed six times (300g, 30 s between washes) and finally eluted in 400 µl of 0.5 M N-acetyl glucosamine (in LiP buffer without detergent) at 4 °C for 30 min. Beads were pelleted at 300g for 30 s and eluate was collected and protein was quantified by BCA test. LiP-Quant assay was performed with membrane enriched eluate in the same manner as described for standard HeLa lysate.

[3] = target: LDLR (Low-density lipoprotein receptor) (Homo sapiens, UniProt P01130); test: LiP-Quant, membrane enriched HeLa eluate
LDLR (Low-density lipoprotein receptor), sequence (P01130 22-860): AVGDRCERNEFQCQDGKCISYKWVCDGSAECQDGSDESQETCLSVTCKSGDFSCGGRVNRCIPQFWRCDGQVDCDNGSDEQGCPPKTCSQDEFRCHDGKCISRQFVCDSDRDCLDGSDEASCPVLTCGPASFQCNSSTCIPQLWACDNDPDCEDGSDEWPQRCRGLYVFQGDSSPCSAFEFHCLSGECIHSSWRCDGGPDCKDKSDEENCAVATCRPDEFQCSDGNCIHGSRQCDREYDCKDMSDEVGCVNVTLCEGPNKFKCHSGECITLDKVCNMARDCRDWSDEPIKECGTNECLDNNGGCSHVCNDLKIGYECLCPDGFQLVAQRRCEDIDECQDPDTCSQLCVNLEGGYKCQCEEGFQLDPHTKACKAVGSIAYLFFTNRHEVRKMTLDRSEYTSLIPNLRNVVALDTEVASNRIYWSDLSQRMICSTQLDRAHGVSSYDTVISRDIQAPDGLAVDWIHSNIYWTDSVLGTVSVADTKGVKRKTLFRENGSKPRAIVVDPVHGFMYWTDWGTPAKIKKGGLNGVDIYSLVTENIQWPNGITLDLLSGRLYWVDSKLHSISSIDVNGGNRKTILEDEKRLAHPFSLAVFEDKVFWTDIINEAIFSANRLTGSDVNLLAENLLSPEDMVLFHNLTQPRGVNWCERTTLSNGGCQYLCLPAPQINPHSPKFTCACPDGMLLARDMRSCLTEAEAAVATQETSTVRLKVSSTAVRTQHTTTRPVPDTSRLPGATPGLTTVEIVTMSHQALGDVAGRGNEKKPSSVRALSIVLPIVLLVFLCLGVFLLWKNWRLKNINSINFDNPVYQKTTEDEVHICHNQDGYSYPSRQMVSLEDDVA
Description: as §3

[4] = target: T6, RBM27 (RNA-binding protein 27) (Homo sapiens, UniProt Q9P2N5); test: LiP-Quant, membrane enriched HeLa eluate
T6 sequence (Q9P2N5 1-1060): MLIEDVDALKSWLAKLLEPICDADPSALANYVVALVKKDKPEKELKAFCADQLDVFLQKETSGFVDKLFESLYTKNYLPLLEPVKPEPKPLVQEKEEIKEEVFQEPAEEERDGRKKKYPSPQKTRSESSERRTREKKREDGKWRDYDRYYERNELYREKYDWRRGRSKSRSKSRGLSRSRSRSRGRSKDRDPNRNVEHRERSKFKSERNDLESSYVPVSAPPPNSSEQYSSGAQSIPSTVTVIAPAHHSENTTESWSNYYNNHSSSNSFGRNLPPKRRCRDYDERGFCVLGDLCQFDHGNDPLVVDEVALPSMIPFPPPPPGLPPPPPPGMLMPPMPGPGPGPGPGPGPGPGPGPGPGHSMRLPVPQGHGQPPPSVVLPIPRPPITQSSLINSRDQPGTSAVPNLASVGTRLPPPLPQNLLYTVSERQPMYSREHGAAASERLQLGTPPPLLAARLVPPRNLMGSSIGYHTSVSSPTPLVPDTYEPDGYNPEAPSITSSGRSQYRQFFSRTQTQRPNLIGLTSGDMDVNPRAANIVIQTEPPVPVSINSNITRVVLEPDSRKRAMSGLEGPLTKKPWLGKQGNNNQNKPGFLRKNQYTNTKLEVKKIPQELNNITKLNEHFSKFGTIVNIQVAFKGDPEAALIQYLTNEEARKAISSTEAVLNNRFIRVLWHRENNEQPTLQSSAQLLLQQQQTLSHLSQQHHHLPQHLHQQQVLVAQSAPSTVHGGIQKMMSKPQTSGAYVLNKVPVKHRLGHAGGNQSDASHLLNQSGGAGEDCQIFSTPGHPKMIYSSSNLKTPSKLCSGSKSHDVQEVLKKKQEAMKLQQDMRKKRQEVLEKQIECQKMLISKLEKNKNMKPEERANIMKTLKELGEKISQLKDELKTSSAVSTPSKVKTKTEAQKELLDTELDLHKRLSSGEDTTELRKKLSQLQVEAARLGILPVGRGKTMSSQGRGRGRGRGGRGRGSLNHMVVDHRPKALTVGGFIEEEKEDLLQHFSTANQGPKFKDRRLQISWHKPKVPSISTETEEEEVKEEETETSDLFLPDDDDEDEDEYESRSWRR
Description: as §3

MYH9 (Myosin-9) = MYH9 (Myosin-9) (Homo sapiens, UniProt P35579); test: LiP-Quant, membrane enriched HeLa eluate
MYH9 (Myosin-9), sequence (P35579 whole entry): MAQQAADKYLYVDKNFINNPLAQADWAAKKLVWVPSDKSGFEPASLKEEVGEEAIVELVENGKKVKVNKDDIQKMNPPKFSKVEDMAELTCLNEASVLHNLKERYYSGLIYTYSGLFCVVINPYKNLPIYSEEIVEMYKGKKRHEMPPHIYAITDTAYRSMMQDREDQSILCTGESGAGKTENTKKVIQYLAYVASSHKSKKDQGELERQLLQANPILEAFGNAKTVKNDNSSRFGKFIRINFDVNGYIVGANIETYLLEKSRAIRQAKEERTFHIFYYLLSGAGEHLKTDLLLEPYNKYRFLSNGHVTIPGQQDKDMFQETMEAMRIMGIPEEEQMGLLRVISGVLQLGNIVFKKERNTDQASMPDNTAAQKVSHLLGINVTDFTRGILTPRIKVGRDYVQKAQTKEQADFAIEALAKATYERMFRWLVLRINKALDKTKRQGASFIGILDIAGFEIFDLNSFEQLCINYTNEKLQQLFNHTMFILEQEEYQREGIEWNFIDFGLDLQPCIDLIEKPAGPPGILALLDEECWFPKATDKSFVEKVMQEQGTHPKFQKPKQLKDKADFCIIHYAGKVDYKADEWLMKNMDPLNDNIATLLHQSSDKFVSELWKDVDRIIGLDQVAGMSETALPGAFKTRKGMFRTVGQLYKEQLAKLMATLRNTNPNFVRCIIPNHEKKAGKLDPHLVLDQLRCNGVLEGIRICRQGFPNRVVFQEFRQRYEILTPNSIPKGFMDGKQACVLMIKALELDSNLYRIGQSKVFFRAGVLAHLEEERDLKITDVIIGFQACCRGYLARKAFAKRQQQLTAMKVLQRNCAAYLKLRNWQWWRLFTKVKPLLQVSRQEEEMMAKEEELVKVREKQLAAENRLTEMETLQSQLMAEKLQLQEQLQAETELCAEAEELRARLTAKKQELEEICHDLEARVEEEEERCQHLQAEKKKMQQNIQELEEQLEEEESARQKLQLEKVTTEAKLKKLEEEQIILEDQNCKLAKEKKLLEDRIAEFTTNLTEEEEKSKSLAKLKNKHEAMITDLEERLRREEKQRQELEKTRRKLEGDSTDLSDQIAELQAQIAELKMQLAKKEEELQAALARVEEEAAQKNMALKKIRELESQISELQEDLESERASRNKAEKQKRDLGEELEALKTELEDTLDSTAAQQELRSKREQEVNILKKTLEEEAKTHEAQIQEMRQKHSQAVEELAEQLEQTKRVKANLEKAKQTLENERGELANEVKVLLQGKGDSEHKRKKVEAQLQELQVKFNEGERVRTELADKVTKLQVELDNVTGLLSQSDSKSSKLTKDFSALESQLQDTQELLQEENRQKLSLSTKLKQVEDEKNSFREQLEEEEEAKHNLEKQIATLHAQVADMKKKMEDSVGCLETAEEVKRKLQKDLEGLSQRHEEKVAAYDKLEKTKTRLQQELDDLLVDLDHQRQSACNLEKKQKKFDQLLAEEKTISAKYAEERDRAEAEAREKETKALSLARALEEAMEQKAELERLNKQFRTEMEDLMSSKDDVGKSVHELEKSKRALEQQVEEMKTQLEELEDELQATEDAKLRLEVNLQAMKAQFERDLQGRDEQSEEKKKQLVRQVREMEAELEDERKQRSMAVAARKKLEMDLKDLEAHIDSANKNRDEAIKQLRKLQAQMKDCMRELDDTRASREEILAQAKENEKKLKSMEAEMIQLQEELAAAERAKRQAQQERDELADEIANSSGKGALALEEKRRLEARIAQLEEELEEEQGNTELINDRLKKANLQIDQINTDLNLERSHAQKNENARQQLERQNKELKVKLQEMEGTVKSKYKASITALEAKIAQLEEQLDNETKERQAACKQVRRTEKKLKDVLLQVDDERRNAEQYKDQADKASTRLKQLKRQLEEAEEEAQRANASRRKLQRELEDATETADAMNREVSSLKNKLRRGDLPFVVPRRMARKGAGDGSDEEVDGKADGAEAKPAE
Description: as §3

[5] = FKBP1A peptide LVFDVELLK, Decreasing
[6] = FKBP1A peptide VFDVELLK, Decreasing
[7] = FKBP1A peptide YTGMLEDGK, Decreasing

SMILES: COC[C@@H]([C@H](O)[C@H](O)C(=O)NCC[C@H](C)c1nc(/C=C/C[C@@H]2O[C@]3(C[C@@H](O)[C@@H]2C)O[C@H]([C@H](C[C@H](O)[C@H](C)[C@H](O)[C@H](C)/C=C(C)/C(C)=C/C=C/C(C)=C\C#N)OC)[C@H](OP(=O)(O)O)C3(C)C)co1)N(C)C [Calyculin A]
EC50 (PP2A/B (PPP2CA;PPP2CB); HeLa lysate, 12 peptides, read-out: median EC50 across LiP-Quant peptides): 18 nM | LiP Score (PP2A/B (PPP2CA;PPP2CB); peptide AHQLVMEGYNWCHDR, PPP2CA): 4.613 | EC50 (PP2A/B (PPP2CA;PPP2CB); peptide AHQLVMEGYNWCHDR, PPP2CA, read-out: EC50): 11.4 nM | LiP Score (PP2A/B (PPP2CA;PPP2CB); peptide NVVTIFSAPNYCYR, PPP2CA): 4.820 | EC50 (PP2A/B (PPP2CA;PPP2CB); peptide NVVTIFSAPNYCYR, PPP2CA, read-out: EC50): 19.3 nM | LiP Score (PP2A/B (PPP2CA;PPP2CB); peptide YSFLQFDPAPR, PPP2CA): 5.385 | EC50 (PP2A/B (PPP2CA;PPP2CB); peptide YSFLQFDPAPR, PPP2CA, read-out: EC50): 18.2 nM | EC50 (PP1): 63 nM | LiP Rank (PPP1CA): 196 | LiP Score (PPP1CA): 1.364 | LiP Rank (PPP3CA): 2187 | LiP Score (PPP3CA): 0.782 | EC50 ratio difference between PP2A and PP1 (PP2A and PP1): 3.5 fold

SMILES: C=CC[C@@H]1/C=C(\C)C[C@H](C)C[C@H](OC)[C@H]2O[C@@](O)(C(=O)C(=O)N3CCCC[C@H]3C(=O)O[C@H](/C(C)=C/[C@@H]3CC[C@@H](O)[C@H](OC)C3)[C@H](C)[C@@H](O)CC1=O)[C@H](C)C[C@@H]2OC [FK506]
LiP Rank (FKBP1A; [5]): 8 | Score (FKBP1A; [5]): 1.86 | LiP Rank (FKBP1A; [6]): 10 | Score (FKBP1A; [6]): 1.73 | LiP Rank (FKBP1A; [7]): 4 | Score (FKBP1A; [7]): 3.01 | LiP Rank (FKBP1A; FKBP1A peptide […], Decreasing): 11 | Score (FKBP1A; FKBP1A peptide […], Decreasing): 1.72 | Score (FKBP1A; FKBP1A peptide […], Increasing): 3.49 | Score (FKBP1A; FKBP1A peptide […], Increasing, Supplementary Data 4): 3.820

SMILES: CO[C@H]1C[C@@H]2CC[C@@H](C)[C@@](O)(O2)C(=O)C(=O)N2CCCC[C@H]2C(=O)O[C@H]([C@H](C)C[C@@H]2CC[C@@H](O)[C@H](OC)C2)CC(=O)[C@H](C)/C=C(\C)[C@@H](O)[C@@H](OC)C(=O)[C@H](C)C[C@H](C)/C=C/C=C/C=C/1C [Rapamycin]
LiP-Quant score (ARI1): > 2.5 | LiP-Quant score (SYEC): > 2.5 | EC50 ([1]; FPR1 peptide _GWDVGIPK_): 144 nM | EC50 ([1]; FPR1 peptide _TGDLVTIH_): 619 nM | LiP Rank ([1]; FPR1 peptide _GSPFQCNIGVGQVIK_): 1 | LiP Score ([1]; FPR1 peptide _GSPFQCNIGVGQVIK_): 3.228 | LiP Rank ([1]; FPR1 peptide _GWDVGIPK_): 2 | LiP Score ([1]; FPR1 peptide _GWDVGIPK_): 3.111 | LiP Rank ([1]; FPR1 peptide _RISPGDGATFPK_): 4 | LiP Score ([1]; FPR1 peptide _RISPGDGATFPK_): 2.974 | LiP Rank ([1]; FPR1 peptide _TGDLVTIH_): 3

LIPscore (MAPK2K1 (MAP2K1); peptide VSIAVIK (selumetinib sheet) or best peptide of the protein (Supp Data 7)): 2.617 | LIPRank (MAPK2K1 (MAP2K1); peptide VSIAVIK (selumetinib sheet) or protein level (Supp Data 7)): 3 | DRC (PLEC (Plectin); dose-response correlation): 0.9991 | LIPRank (PLEC (Plectin)): 1 | LIPscore (PLEC (Plectin)): 3.316 | DRC (NQO2; dose-response correlation): 0.9666 | LIPRank (NQO2): 2 | LIPscore (NQO2): 3.07 | DRC (LIN7C; dose-response correlation): 0.9974 | LIPRank (LIN7C): 4 | LIPscore (LIN7C): 2.585 | DRC (XPO1 (Exportin-1); dose-response correlation): 0.9996 | LIPRank (XPO1 (Exportin-1)): 5 | LIPscore (XPO1 (Exportin-1)): 2.504
SMILES: Cn1cnc2c(F)c(Nc3ccc(Br)cc3Cl)c(C(=O)NOCCO)cc21 [Selumetinib]
EC50 (MAPK2K1): 41 nM

SMILES: C[C@@H]1O[C@@H](O[C@@H]2C=C3CC[C@@H]4[C@H](CC[C@]5(C)[C@@H](c6ccc(=O)oc6)CC[C@]45O)[C@@]3(C)CC2)[C@H](O)[C@H](O)[C@H]1O [proscillaridin A]
EC50 [2]: 16.4 nM | DRC ([2]; peptide AVAGDASESALLK): 0.9716 | LiP Rank ([2]; peptide AVAGDASESALLK): 1 | LiP Score ([2]; peptide AVAGDASESALLK): 4.437 | EC50 [3]: 27.3 nM | DRC ([3]; peptide TILEDEKR): 0.9716 | LiP Rank ([3]; peptide TILEDEKR): 2 | LiP Score ([3]; peptide TILEDEKR): 4.346 | EC50 [4]: 17.3 nM | DRC ([4]; peptide LSSGEDTTELR): 0.9721 | LiP Rank ([4]; peptide LSSGEDTTELR): 3 | LiP Score ([4]; peptide LSSGEDTTELR): 4.331 | EC50 (MYH9 (Myosin-9)): 31 nM | DRC (MYH9 (Myosin-9); peptide HSQAVEELAEQLEQTKR): 0.9583 | LiP Rank (MYH9 (Myosin-9); peptide HSQAVEELAEQLEQTKR): 4 | LiP Score (MYH9 (Myosin-9); peptide HSQAVEELAEQLEQTKR): 4.317

— publication PMC7442650, “A machine learning-based chemoproteomic approach to identify drug targets and binding sites in complex proteomes” (Nature Communications, 2020)
